Columns and labels:
Type in all cases: biochemical
B-Raf V600E = target: T1, B-Raf V600E (Homo sapiens, UniProt P15056, V600E); experiment: AlphaScreen kinase assay, B-Raf V600E; settings: read-out: IC50, activity toward kinase B-Raf V600E
T1 construct: P4254. pFastBacBD-CDC37 BRAF D437-K722-X, V600E; His6 with pFastBac HT leader (TEV site) (N); made in house; host or cells: Sf9 (baculovirus; chaperone CDC37 co-expressed)

Fms = target: T2, Fms (Homo sapiens, UniProt P07333); experiment: AlphaScreen kinase assay, Fms; settings: read-out: IC50, activity toward kinase Fms
T2 construct: purchased Upstate Biotechnology
T2 sequence (P07333 20-972): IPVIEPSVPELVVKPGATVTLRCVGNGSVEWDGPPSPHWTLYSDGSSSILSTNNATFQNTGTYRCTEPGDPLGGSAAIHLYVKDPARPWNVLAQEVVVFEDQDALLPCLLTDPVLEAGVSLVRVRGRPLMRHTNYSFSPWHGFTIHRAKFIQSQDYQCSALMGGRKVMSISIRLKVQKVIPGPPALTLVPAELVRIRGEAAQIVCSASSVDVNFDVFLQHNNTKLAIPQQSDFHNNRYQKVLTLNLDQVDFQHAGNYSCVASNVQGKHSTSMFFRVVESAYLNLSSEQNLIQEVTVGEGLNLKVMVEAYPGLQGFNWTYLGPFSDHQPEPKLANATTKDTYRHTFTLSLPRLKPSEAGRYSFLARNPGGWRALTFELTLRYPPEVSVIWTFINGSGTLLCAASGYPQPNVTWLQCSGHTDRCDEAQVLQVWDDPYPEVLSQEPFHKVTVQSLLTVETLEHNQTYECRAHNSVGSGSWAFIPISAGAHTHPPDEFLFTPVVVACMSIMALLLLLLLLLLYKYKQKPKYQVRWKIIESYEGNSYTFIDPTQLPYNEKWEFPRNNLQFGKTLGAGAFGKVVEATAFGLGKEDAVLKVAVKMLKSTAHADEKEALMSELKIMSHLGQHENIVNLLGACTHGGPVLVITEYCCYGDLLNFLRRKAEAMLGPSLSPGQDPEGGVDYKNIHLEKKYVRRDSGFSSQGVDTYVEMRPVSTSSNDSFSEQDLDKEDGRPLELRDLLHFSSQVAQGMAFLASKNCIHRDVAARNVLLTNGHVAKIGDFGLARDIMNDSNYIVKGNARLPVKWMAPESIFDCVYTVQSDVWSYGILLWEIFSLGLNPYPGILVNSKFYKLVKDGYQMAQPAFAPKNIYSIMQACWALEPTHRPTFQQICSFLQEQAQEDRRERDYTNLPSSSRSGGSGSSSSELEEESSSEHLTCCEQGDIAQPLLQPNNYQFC

Kit = target: T3, Kit (Homo sapiens, UniProt P10721); experiment: AlphaScreen kinase assay, Kit; settings: read-out: IC50, activity toward kinase Kit
T3 construct: P1332.N6 BI PTP KIT M552-K948-X COD; His6 (N); made in house; host or cells: E. coli (PTP1B co-expressed)
T3 sequence (P10721 with tags, fused parts or gaps): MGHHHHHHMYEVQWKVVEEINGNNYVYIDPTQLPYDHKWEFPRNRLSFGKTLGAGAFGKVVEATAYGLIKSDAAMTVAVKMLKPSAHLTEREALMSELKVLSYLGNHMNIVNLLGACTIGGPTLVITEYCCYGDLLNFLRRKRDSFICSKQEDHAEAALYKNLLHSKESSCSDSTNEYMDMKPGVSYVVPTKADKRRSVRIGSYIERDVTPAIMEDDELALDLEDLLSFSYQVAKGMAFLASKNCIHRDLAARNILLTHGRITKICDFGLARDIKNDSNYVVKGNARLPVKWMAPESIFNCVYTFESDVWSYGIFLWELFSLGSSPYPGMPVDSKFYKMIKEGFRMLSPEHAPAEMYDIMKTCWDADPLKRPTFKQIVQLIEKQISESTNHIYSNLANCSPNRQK

Flt1 = target: T4, Flt1 (Homo sapiens, UniProt P17948); experiment: AlphaScreen kinase assay, Flt1; settings: read-out: IC50, activity toward kinase Flt1
T4 construct: P1826.pETN6 BI-PTP FLT1 M799-D1165-X WT; His6 (N); made in house; host or cells: E. coli (PTP1B co-expressed)
T4 sequence (P17948 with tags, fused parts or gaps): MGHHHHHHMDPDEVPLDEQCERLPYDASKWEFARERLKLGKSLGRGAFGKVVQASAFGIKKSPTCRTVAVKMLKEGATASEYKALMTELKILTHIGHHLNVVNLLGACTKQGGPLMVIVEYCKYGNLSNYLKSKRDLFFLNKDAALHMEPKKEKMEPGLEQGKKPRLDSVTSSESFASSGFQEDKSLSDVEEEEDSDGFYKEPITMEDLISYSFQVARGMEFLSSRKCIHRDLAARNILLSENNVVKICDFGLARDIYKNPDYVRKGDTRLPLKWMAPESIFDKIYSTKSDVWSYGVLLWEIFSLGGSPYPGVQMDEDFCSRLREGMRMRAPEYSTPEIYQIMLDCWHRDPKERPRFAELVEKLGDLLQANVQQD

FGFR1 = target: T5, FGFR1 (Homo sapiens, UniProt P11362, C488A/C584S); experiment: AlphaScreen kinase assay, FGFR1; settings: read-out: IC50, activity toward kinase FGFR
T5 construct: P1351.pET N6 BI-PTP FGFR A458-E765-X C488A, C584S; made in house; host or cells: E. coli (PTP1B co-expressed)
T5 sequence (P11362 458-765 C488A/C584S): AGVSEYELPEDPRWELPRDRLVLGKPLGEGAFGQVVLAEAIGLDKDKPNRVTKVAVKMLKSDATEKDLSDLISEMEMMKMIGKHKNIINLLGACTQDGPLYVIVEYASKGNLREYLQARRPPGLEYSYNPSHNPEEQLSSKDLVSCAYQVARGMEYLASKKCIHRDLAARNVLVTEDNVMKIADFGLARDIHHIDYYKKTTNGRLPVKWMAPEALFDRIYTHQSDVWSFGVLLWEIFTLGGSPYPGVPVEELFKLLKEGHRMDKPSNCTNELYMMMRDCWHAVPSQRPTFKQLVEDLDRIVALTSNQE

B-Raf = target: T6, B-Raf (Homo sapiens, UniProt P15056); experiment: AlphaScreen kinase assay, B-Raf; settings: read-out: IC50, activity toward kinase B-Raf
T6 construct: purchased Upstate Biotechnology
T6 sequence (P15056 whole entry): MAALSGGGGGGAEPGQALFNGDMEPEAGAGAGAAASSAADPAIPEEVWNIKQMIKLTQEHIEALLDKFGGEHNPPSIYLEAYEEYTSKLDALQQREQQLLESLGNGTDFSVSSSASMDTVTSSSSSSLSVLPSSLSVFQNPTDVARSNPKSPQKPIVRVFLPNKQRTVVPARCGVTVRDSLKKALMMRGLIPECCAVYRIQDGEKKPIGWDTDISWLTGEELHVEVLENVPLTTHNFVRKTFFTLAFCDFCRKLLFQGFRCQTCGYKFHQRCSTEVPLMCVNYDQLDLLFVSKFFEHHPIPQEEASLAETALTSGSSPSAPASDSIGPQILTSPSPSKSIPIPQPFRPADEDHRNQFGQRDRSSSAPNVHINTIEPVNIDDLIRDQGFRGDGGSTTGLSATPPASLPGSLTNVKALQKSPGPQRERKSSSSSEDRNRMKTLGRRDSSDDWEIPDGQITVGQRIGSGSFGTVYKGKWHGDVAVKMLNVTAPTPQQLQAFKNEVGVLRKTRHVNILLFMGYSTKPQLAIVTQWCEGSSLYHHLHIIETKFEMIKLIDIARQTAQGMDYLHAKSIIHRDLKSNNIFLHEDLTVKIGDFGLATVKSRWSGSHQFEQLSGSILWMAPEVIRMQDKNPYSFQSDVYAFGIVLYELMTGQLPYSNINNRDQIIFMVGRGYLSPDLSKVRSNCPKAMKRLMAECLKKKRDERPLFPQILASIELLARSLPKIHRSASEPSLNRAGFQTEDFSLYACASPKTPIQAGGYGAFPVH

Measured: IC50

T1 sequence (P15056 with tags, fused parts or gaps V600E): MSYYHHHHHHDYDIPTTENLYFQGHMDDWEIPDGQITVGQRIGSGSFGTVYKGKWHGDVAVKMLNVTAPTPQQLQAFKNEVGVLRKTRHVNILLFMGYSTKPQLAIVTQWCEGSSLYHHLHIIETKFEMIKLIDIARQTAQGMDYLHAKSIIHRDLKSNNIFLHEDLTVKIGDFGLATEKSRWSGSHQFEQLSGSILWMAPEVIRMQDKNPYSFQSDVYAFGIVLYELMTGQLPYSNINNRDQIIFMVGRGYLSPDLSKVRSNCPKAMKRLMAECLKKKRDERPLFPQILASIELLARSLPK

CS(=O)(=O)Nc1cccc(-c2cnc3[nH]cc(C(=O)c4cccc(C(F)(F)F)c4)c3c2)c1 [Compound P-1425, N-{3-[3-(3-Trifluoromethyl-benzoyl)-1H-pyrrolo[2,3-b]pyridin-5-yl]-phenyl}-methanesulfonamide]
≤ 10 µM: B-Raf V600E | Fms | Kit | Flt1

O=C(Nc1ccc(F)c(Cc2c[nH]c3ncc(Cl)cc23)c1F)N1CCOCC1 [Compound P-1595, Morpholine-4-carboxylic acid [3-(5-chloro-1H-pyrrolo[2,3-b]pyridin-3-ylmethyl)-2,4-difluoro-phenyl]-amide]
≤ 10 µM: FGFR1 | Fms | Flt1

O=S(=O)(Nc1ccc(F)c(Cc2c[nH]c3ncc(Cl)cc23)c1F)c1cccc(C(F)(F)F)c1 [Compound P-1600, N-[2,4-Difluoro-3-(5-chloro-1H-pyrrolo[2,3-b]pyridin-3-ylmethyl)-phenyl]-3-trifluoromethyl-benzenesulfonamide]
≤ 10 µM: B-Raf V600E | B-Raf | Flt1

COc1cc(OC)cc(C(=O)c2c[nH]c3ncc(Br)cc23)c1 [Compound P-1463, (5-Bromo-1H-pyrrolo[2,3-b]pyridin-3-yl)-(3,5-dimethoxy-phenyl)-methanone]
≤ 10 µM: FGFR1 | Fms | Kit | Flt1

COc1cnc2[nH]cc(Cc3c(F)ccc(NS(=O)(=O)c4cccc(C(F)(F)F)c4)c3F)c2c1 [Compound P-1590, N-[2,4-Difluoro-3-(5-methoxy-1H-pyrrolo[2,3-b]pyridin-3-ylmethyl)-phenyl]-3-trifluoromethyl-benzenesulfonamide]
≤ 10 µM: B-Raf V600E | B-Raf | Kit | Flt1

COC(=O)/C=C/c1cccc(-c2cnc3[nH]cc(C(=O)c4cccc(NS(C)(=O)=O)c4)c3c2)c1 [Compound P-1404]
≤ 10 µM: FGFR1 | Fms | Kit | Flt1

COc1cc(Cc2c[nH]c3ncc(Br)cc23)cc(OC)c1 [Compound P-1464, 5-Bromo-3-(3,5-dimethoxy-benzyl)-1H-pyrrolo[2,3-b]pyridine]
≤ 10 µM: FGFR1 | Fms | Kit | Flt1

CCCCN(C)C(=O)Nc1ccc(F)c(Cc2c[nH]c3ncc(Cl)cc23)c1F [Compound P-1625, 1-Butyl-3-[3-(5-chloro-1H-pyrrolo[2,3-b]pyridin-3-ylmethyl)-2,4-difluoro-phenyl]-1-methyl-urea]
≤ 10 µM: FGFR1 | Fms | Flt1

CS(=O)(=O)Nc1cccc(-c2cnc3[nH]cc(C(=O)c4cc(F)cc(C(F)(F)F)c4)c3c2)c1 [Compound P-1427, N-{3-[3-(3-Fluoro-5-trifluoromethyl-benzoyl)-1H-pyrrolo[2,3-b]pyridin-5-yl]-phenyl}-methanesulfonamide]
≤ 10 µM: Fms | Kit | Flt1

CCCCNC(=O)Nc1ccc(F)c(C(=O)c2c[nH]c3ncc(Cl)cc23)c1F [Compound P-1586, 1-Butyl-3-[3-(5-chloro-1H-pyrrolo[2,3-b]pyridine-3-carbonyl)-2,4-difluoro-phenyl]-urea]
≤ 10 µM: B-Raf V600E | B-Raf | Fms | Flt1

Nc1cccc(C(=O)c2c[nH]c3ncc(-c4cccc(OC(F)(F)F)c4)cc23)c1 [Compound P-1593]
≤ 10 µM: B-Raf | FGFR1 | Kit | Flt1

COc1cc(OC)cc(C(OC)c2c[nH]c3ncc(Br)cc23)c1 (centres unmarked) [Compound P-1461]
≤ 10 µM: FGFR1 | Fms | Kit | Flt1

CS(=O)(=O)Nc1cccc(-c2cnc3[nH]cc(C(=O)c4ccc5c(c4)OC(F)(F)O5)c3c2)c1 [Compound P-1564, N-{3-[3-(2,2-Difluoro-benzo[1,3]dioxole-5-carbonyl)-1H-pyrrolo[2,3-b]pyridin-5-yl]-phenyl}-methanesulfonamide]
not listed: B-Raf
≤ 10 µM: all other assays above

COc1cnc2[nH]cc(C(=O)c3c(F)ccc(NS(=O)(=O)c4ccc(F)cc4)c3F)c2c1 [Compound P-1582, N-[2,4-Difluoro-3-(5-methoxy-1H-pyrrolo[2,3-b]pyridine-3-carbonyl)-phenyl]-4-fluoro-benzenesulfonamide]
not listed: Fms
≤ 10 µM: all other assays above

COc1ccnc2[nH]cc(Cc3ccc(NCc4ccc(C(F)(F)F)cc4)nc3)c12 [Compound P-1110]
≤ 10 µM: B-Raf | FGFR1 | Fms | Flt1

OC(c1c(Cl)ccc(OCC(F)(F)F)c1F)c1c[nH]c2ncc(Br)cc12 (centres unmarked) [Compound P-1393, (5-Bromo-1H-pyrrolo[2,3-b]pyridin-3-yl)-[6-chloro-2-fluoro-3-(2,2,2-trifluoro-ethoxy)-phenyl]-methanol]
≤ 10 µM: FGFR1 | Fms | Kit | Flt1

COc1cc(OC)cc(C(O)c2c[nH]c3ncc(Br)cc23)c1 (centres unmarked) [Compound P-1460]
≤ 10 µM: FGFR1 | Fms | Kit | Flt1

Oc1ccc(Nc2c[nH]c3ncccc23)c(F)c1 [Compound P-1499, 3-Fluoro-4-(1H-pyrrolo[2,3-b]pyridin-3-ylamino)-phenol]
≤ 10 µM: Fms | Kit | Flt1

CC(C)(C)OC(=O)N(Cc1ccc(Cl)cc1)c1ccc(C(=O)c2c[nH]c3ncccc23)cn1 [Compound P-1194]
not listed: B-Raf
≤ 10 µM: all other assays above

c1ccc(Cc2cccc(Nc3c[nH]c4ncccc34)c2)cc1 [Compound P-1497, (3-Benzyl-phenyl)-(1H-pyrrolo[2,3-b]pyridin-3-yl)-amine]
≤ 10 µM: Fms | Kit | Flt1

CC(=O)Nc1cccc(-c2cnc3[nH]cc(C(=O)c4cc(Cl)cc(Cl)c4)c3c2)c1 [Compound P-1423, N-{3-[3-(3,5-Dichloro-benzoyl)-1H-pyrrolo[2,3-b]pyridin-5-yl]-phenyl}-acetamide]
not listed: B-Raf
≤ 10 µM: all other assays above

CS(=O)(=O)Nc1ccc(F)c(Cc2c[nH]c3ncc(-c4cccnc4)cc23)c1F [Compound P-1605, N-[2,4-Difluoro-3-(5-pyridin-3-yl-1H-pyrrolo[2,3-b]pyridin-3-ylmethyl)-phenyl]-methanesulfonamide]
not listed: Fms
≤ 10 µM: all other assays above

CS(=O)(=O)Nc1cccc(-c2cnc3[nH]cc(C(=O)c4cccc(OC(F)(F)F)c4)c3c2)c1 [Compound P-1428, N-{3-[3-(3-Trifluoromethoxy-benzoyl)-1H-pyrrolo[2,3-b]pyridin-5-yl]-phenyl}-methanesulfonamide]
≤ 10 µM: FGFR1 | Fms | Kit | Flt1

CCCCN(C)C(=O)Nc1ccc(F)c(C(=O)c2c[nH]c3ncc(Cl)cc23)c1F [Compound P-1612, 1-Butyl-3-[3-(5-chloro-1H-pyrrolo[2,3-b]pyridine-3-carbonyl)-2,4-difluoro-phenyl]-1-methyl-urea]
≤ 10 µM: B-Raf V600E | B-Raf | Fms | Flt1

— US8415469B2, “Compounds and methods for kinase modulation, and indications therefor” (Plexxikon Inc., priority 2005, dated 2013)
